Data reported in PMC3205148 (International Journal of Nanomedicine, 2011).
Values after ≈ are worked out from the molar mass of the structure shown.

Key:
OVCAR-3 = conditions: day 300, OVCAR-3-bearing SCID mice; cited from earlier work
[1] = Solubility in Miglyol 812; assay type: physicochemical; conditions: Miglyol 812, oil or lipid

SMILES	Survival (OVCAR-3)	solubility [1]
CCCCCCCCCCCCCCC(Br)C(=O)O[C@@H](C(=O)O[C@H]1C[C@@]2(O)[C@@H](OC(=O)c3ccccc3)[C@@H]3[C@]4(OC(C)=O)CO[C@@H]4C[C@H](O)[C@@]3(C)C(=O)[C@H](O)C(=C1C)C2(C)C)[C@@H](NC(=O)OC(C)(C)C)c1ccccc1 (some centres unmarked) [2′-(2-bromo)-hexadecanoyl DX]	100%	–
CC(=O)O[C@@]12CO[C@@H]1C[C@H](O)[C@@]1(C)C(=O)[C@H](O)C3=C(C)[C@@H](OC(=O)[C@H](O)[C@@H](NC(=O)OC(C)(C)C)c4ccccc4)C[C@@](O)([C@@H](OC(=O)c4ccccc4)[C@H]21)C3(C)C [DX, Docetaxel]	–	36.11 ± 0.1 mg/mL (≈ 44.7 mM)
